Measurements from patent US4375513A, “Biologically pure culture of Actinoplanes missouriensis” (Eli Lilly and Company, priority 1981, dated 1983).
Where a name gives a salt, the structure may show the parent alone.

Legend:
[1] = test system: Actinoplanes Strain ATCC 31680; assay: antibiotic sensitivity of Actinoplanes strain ATCC 31680; format: cell-based, Actinoplanes missouriensis
Description: (§1) The methods used for the taxonomic studies of strains ATCC 31680, ATCC 31682, and ATCC 31683 are well known to those skilled in the art and in large part are methods recommended for the International Streptomyces Project (ISP), described by Shirling and Gottlieb, 1966, Intern. J. of Systematic Bacteriol. 16(3):313-340. Enzyme assays were carried out according to the methods of Blazevic and Ederer, 1975, Principles of Biochemical Tests in Diagnostic Microbiology, John Wiley and Sons. Inc., New York, and color names, abbreviations, and numbers were assigned using the ISCC-NBS method of Kelly and Judd, 1976, The ISCC-NBS Centroid Color Charts Standard Sample No. 2106, U.S. Dept. of Commerce, National Bureau of Standards, Washington D.C. Lysozyme resistance and the decomposition of casein, esculin, hypoxanthine, tyrosine, and xanthine were measured using the procedure of Berg, 1973, Appl. Microbiol. 25:665-681. Carbon utilization studies were also completed and are stored as follows: […]

[2] = test system: Actinoplanes Strain ATCC 31682; assay: antibiotic sensitivity of Actinoplanes strain ATCC 31682; format: cell-based, Actinoplanes missouriensis
Description: as §1

[3] = test system: Actinoplanes Strain ATCC 31683; assay: antibiotic sensitivity of Actinoplanes strain ATCC 31683; format: cell-based, Actinoplanes missouriensis
Description: as §1

[4] = bioautography of aglycone formation during hydrolysis; format: cell-based; conditions: during hydrolysis of A-4696 complex and individual factors
Excerpt: An additional factor, designated as E1, can also be isolated from the antibiotic A-4696 complex and may represent a degradation product. The chemical, physical, and biological properties of the factors indicate that they are new antibiotics and, except possibly for factor E1, that they are composed of the same peptide core (aglycone) and amino sugar, and varying amounts of glucose, mannose, and rhamnose. […] It is possible that the site of antimicrobial activity of the A-4696 complex and individual factors resides in the peptide pseudo-aglycone, with the factors being substantially differentiated by differences in their neutral sugar composition. The attached sugars may function chiefly to modulate solubility and other important pharmacodynamic parameters.

Compound | Antibiotic sensitivity ([1]; 30 μg.) | Antibiotic sensitivity ([2]; 30 μg.) | Antibiotic sensitivity ([3]; 30 μg.) | further results
CCC(=O)O[C@H]1[C@H](O[C@@H]2[C@@H](C)[C@H](O[C@H]3C[C@@](C)(OC)[C@@H](O)[C@H](C)O3)[C@@H](C)C(=O)O[C@H](CC)[C@@](C)(O)[C@H](O)[C@@H](C)C(=O)[C@H](C)C[C@@]2(C)O)O[C@H](C)C[C@@H]1N(C)C [Erythromycin (estolate)] |  |  |  | Antibiotic sensitivity ([1]; 15 μg.): Sensitive; Antibiotic sensitivity ([2]; 15 μg.): Sensitive; Antibiotic sensitivity ([3]; 15 μg.): Sensitive
CO[C@H]1/C=C/O[C@@]2(C)Oc3c(C)c(O)c4c(O)c(c(/C=N/N5CCN(C)CC5)c(O)c4c3C2=O)NC(=O)/C(C)=C\C=C\[C@H](C)[C@H](O)[C@@H](C)[C@@H](O)[C@@H](C)[C@H](OC(C)=O)[C@@H]1C [Rifampin] |  |  |  | Antibiotic sensitivity ([1]; 5 μg.): Sensitive; Antibiotic sensitivity ([2]; 5 μg.): Sensitive; Antibiotic sensitivity ([3]; 5 μg.): Sensitive
O=C(N[C@H](CO)[C@H](O)c1ccc([N+](=O)[O-])cc1)C(Cl)Cl [Chloromycetin] | Sensitive | Sensitive | Sensitive | 
[H]/N=C(/N)N[C@H]1[C@H](O)[C@@H](O)[C@H](O[C@@H]2O[C@@H](C)[C@](O)(C=O)[C@H]2O[C@@H]2O[C@@H](CO)[C@H](O)[C@@H](O)[C@@H]2NC)[C@@H](N/C(N)=N\[H])[C@@H]1O [Streptomycin] |  |  |  | Antibiotic sensitivity ([1]; 10 μg.): Sensitive; Antibiotic sensitivity ([2]; 10 μg.): Sensitive; Antibiotic sensitivity ([3]; 10 μg.): Sensitive
CN[C@H](CC(C)C)C(=O)N[C@H]1C(=O)N[C@@H](CC(N)=O)C(=O)N[C@H]2C(=O)N[C@H]3C(=O)N[C@H](C(=O)N[C@H](C(=O)O)c4cc(O)cc(O)c4-c4cc3ccc4O)[C@H](O)c3ccc(c(Cl)c3)Oc3cc2cc(c3O[C@@H]2O[C@H](CO)[C@@H](O)[C@H](O)[C@H]2O[C@H]2C[C@](C)(N)[C@H](O)[C@H](C)O2)Oc2ccc(cc2Cl)[C@H]1O [Vancomycin HCl] | Sensitive | Sensitive | Sensitive | 
COC(=O)C1NC(=O)C2NC(=O)C(NC(=O)C3NC(=O)C4NC(=O)C(Cc5ccc(cc5)Oc5cc3cc(c5O)Oc3ccc(cc3Cl)C2OC2CC(N)C(O)C(C)O2)NC(=O)C(N)c2ccc(O)c(c2)Oc2cc4cc(O)c2C)c2ccc(O)c(c2)-c2c(O)cc(O)cc21 (stereo not shown) [pseudo-aglycone] |  |  |  | antimicrobial activity (bioautography) [4]: antimicrobially active
CC(=O)OCC1=C(C(=O)O)N2C(=O)[C@@H](NC(=O)Cc3cccs3)[C@H]2SC1 [Cephalothin (sodium)] | Sensitive | Sensitive | Sensitive | 
CC1(C)S[C@@H]2[C@H](NC(=O)Cc3ccccc3)C(=O)N2[C@H]1C(=O)O [Penicillin (G)] |  |  |  | Antibiotic sensitivity ([1]; 10 units): Sensitive; Antibiotic sensitivity ([2]; 10 units): Sensitive; Antibiotic sensitivity ([3]; 10 units): Sensitive
CO[C@@H]1[C@@H](OC(N)=O)[C@@H](O)[C@H](Oc2ccc3c(O)c(NC(=O)c4ccc(O)c(CC=C(C)C)c4)c(=O)oc3c2C)OC1(C)C [Novobiocin] | Sensitive | Sensitive | Sensitive | 
CN(C)C1C(=O)C(C(N)=O)=C(O)C2(O)C(=O)C3=C(O)c4c(O)cccc4C(C)(O)C3CC12 (stereo not shown) [Tetracycline] | Sensitive | Sensitive | Sensitive | 
